Assay results from patent publication US20250179050A1, “POLYMORPH AS THYROID HORMONE RECEPTOR AGONISTS AND USE THEREOF” (XIZANG HAISCO PHARMACEUTICAL CO., LTD., priority 2022, published 2025).
One block for each compound: values may come before it.

Assay: Thermal crystal transformation test (hot stage, XRPD)
Type: physicochemical
Details: for Results (crystal form after thermal crystal transformation, XRPD): heating rate 10° C./min, holding time 1 min
Experimental: The present invention further provides a method for preparing the polymorph of any one of Form A to Form Z, including: • (1) suspension method: adding a crude free base of the compound of formula I (which can be prepared according to the methods described in WO 2019240938 A1) to a selected single or binary solvent until a suspension is formed and stirring same under suspension at room temperature to 50° C. for a period of time (e.g., 1 h to 3 days, or 2 h to 24 h, or 2 h to 12 h, or 3 h to 5 h), and then centrifuging and separating the suspension, followed by drying, to obtain the product; or • (2) Anti-solvent crystallization method: adding a crude free base of the compound of formula I to an appropriate amount of a good solvent until completely dissolved, taking an amount of the solution and dropwise adding same to a poor solvent or dropwise adding a poor solvent to the solution, and stirring same to precipitate a solid, followed by separation and drying to obtain the product; or • (3) cooling method: adding a crude free base of the compound of formula I to an appropriate amount of a solvent at 50-80° C. until the solid is just completely dissolved, and transferring the solution to an environment at room temperature for cooling, followed by leaving to stand or crystallization under stirring, separation and drying to obtain the product; or • (4) vapor diffusion method: dropwise adding an appropriate amount of a good solvent to an amount of a crude free base of the compound of formula I at room temperature to completely dissolve the sample or formulating same as a saturated solution of a good solvent; and separately taking an amount of the solution, and leaving the clear solution to stand in a poor solvent atmosphere at room temperature until a solid precipitates out, followed by separation, to obtain the product; or • (5) thermal crystal transformation method: placing an amount of the sample on a glass plate on a hot stage, heating same to the target temperature at a rate (e.g., 5-20° C./min, or 10-15° C./min), and maintaining the temperature for a period of time (e.g., 0.5-5 min, or 1-3 min, or 1-2 min), followed by naturally cooling down to room temperature to obtain a solid.
The different crystal forms, as raw materials, were heated to the target temperature on a hot table and held for 1 min, and cooled to room temperature to obtain solids for the XRPD test.

SMILES: [2H]C([2H])([2H])[C@@H]1CCc2c(Oc3c(Cl)cc(-n4nc(C#N)c(=O)[nH]c4=O)cc3Cl)n[nH]c(=O)c21 [Form E, (R)-2-(3,5-dichloro-4-((7-(methyl-d3)-1-oxo-2,5,6,7-tetrahydro-1H-cyclopenta [d]pyridazin-4-yl)oxy)phenyl)-3,5-dioxo-2,3,4,5-tetrahydro-1,2,4-triazine-6-carbonitrile]
crystal form after thermal crystal transformation (by desolvation): Form C
Results (crystal form after thermal crystal transformation, XRPD) (target temperature 180° C.): Form C

SMILES: [2H]C([2H])([2H])[C@@H]1CCc2c(Oc3c(Cl)cc(-n4nc(C#N)c(=O)[nH]c4=O)cc3Cl)n[nH]c(=O)c21 [Form K, (R)-2-(3,5-dichloro-4-((7-(methyl-d3)-1-oxo-2,5,6,7-tetrahydro-1H-cyclopenta [d]pyridazin-4-yl)oxy)phenyl)-3,5-dioxo-2,3,4,5-tetrahydro-1,2,4-triazine-6-carbonitrile]
crystal form after thermal crystal transformation (heated to 260° C. or more): Form C

SMILES: [2H]C([2H])([2H])[C@@H]1CCc2c(Oc3c(Cl)cc(-n4nc(C#N)c(=O)[nH]c4=O)cc3Cl)n[nH]c(=O)c21 [Form M, (R)-2-(3,5-dichloro-4-((7-(methyl-d3)-1-oxo-2,5,6,7-tetrahydro-1H-cyclopenta [d]pyridazin-4-yl)oxy)phenyl)-3,5-dioxo-2,3,4,5-tetrahydro-1,2,4-triazine-6-carbonitrile]
Results (crystal form after thermal crystal transformation, XRPD) (target temperature 260° C.): Form C

SMILES: [2H]C([2H])([2H])[C@@H]1CCc2c(Oc3c(Cl)cc(-n4nc(C#N)c(=O)[nH]c4=O)cc3Cl)n[nH]c(=O)c21 [Form F, (R)-2-(3,5-dichloro-4-((7-(methyl-d3)-1-oxo-2,5,6,7-tetrahydro-1H-cyclopenta [d]pyridazin-4-yl)oxy)phenyl)-3,5-dioxo-2,3,4,5-tetrahydro-1,2,4-triazine-6-carbonitrile]
crystal form after thermal crystal transformation (heated to 230° C. or more): Form C
Results (crystal form after thermal crystal transformation, XRPD) (target temperature 230° C.): Form C

SMILES: [2H]C([2H])([2H])[C@@H]1CCc2c(Oc3c(Cl)cc(-n4nc(C#N)c(=O)[nH]c4=O)cc3Cl)n[nH]c(=O)c21 [Form J, (R)-2-(3,5-dichloro-4-((7-(methyl-d3)-1-oxo-2,5,6,7-tetrahydro-1H-cyclopenta [d]pyridazin-4-yl)oxy)phenyl)-3,5-dioxo-2,3,4,5-tetrahydro-1,2,4-triazine-6-carbonitrile]
Results (crystal form after thermal crystal transformation, XRPD) (target temperature 160° C.): Form C

SMILES: [2H]C([2H])([2H])[C@@H]1CCc2c(Oc3c(Cl)cc(-n4nc(C#N)c(=O)[nH]c4=O)cc3Cl)n[nH]c(=O)c21 [Form L, (R)-2-(3,5-dichloro-4-((7-(methyl-d3)-1-oxo-2,5,6,7-tetrahydro-1H-cyclopenta [d]pyridazin-4-yl)oxy)phenyl)-3,5-dioxo-2,3,4,5-tetrahydro-1,2,4-triazine-6-carbonitrile]
crystal form after thermal crystal transformation (heated to 100° C.): Form A
crystal form after thermal crystal transformation (heated to 190° C.): Form C
Results (crystal form after thermal crystal transformation, XRPD) (target temperature 100° C.): Form A
Results (crystal form after thermal crystal transformation, XRPD) (target temperature 190° C.): Form C

SMILES: [2H]C([2H])([2H])[C@@H]1CCc2c(Oc3c(Cl)cc(-n4nc(C#N)c(=O)[nH]c4=O)cc3Cl)n[nH]c(=O)c21 [Form A, (R)-2-(3,5-dichloro-4-((7-(methyl-d3)-1-oxo-2,5,6,7-tetrahydro-1H-cyclopenta [d]pyridazin-4-yl)oxy)phenyl)-3,5-dioxo-2,3,4,5-tetrahydro-1,2,4-triazine-6-carbonitrile]
crystal form after thermal crystal transformation (heated to 150° C.): Form A
crystal form after thermal crystal transformation (heated to 300° C.): Form C
Results (crystal form after thermal crystal transformation, XRPD) (target temperature 150° C.): Form A
Results (crystal form after thermal crystal transformation, XRPD) (target temperature 300° C.): Form C

Continued, in another order:

crystal form after thermal crystal transformation (heated to 150° C.): Form V
SMILES: [2H]C([2H])([2H])[C@@H]1CCc2c(Oc3c(Cl)cc(-n4nc(C#N)c(=O)[nH]c4=O)cc3Cl)n[nH]c(=O)c21 [Form V, (R)-2-(3,5-dichloro-4-((7-(methyl-d3)-1-oxo-2,5,6,7-tetrahydro-1H-cyclopenta [d]pyridazin-4-yl)oxy)phenyl)-3,5-dioxo-2,3,4,5-tetrahydro-1,2,4-triazine-6-carbonitrile]

Results (crystal form after thermal crystal transformation, XRPD) (target temperature 235° C.): Form C
SMILES: [2H]C([2H])([2H])[C@@H]1CCc2c(Oc3c(Cl)cc(-n4nc(C#N)c(=O)[nH]c4=O)cc3Cl)n[nH]c(=O)c21 [Form N, (R)-2-(3,5-dichloro-4-((7-(methyl-d3)-1-oxo-2,5,6,7-tetrahydro-1H-cyclopenta [d]pyridazin-4-yl)oxy)phenyl)-3,5-dioxo-2,3,4,5-tetrahydro-1,2,4-triazine-6-carbonitrile]
crystal form after thermal crystal transformation (heated to 235° C. or more): Form C with a slightly less crystallinity

Results (crystal form after thermal crystal transformation, XRPD) (target temperature 200° C.): Form C
SMILES: [2H]C([2H])([2H])[C@@H]1CCc2c(Oc3c(Cl)cc(-n4nc(C#N)c(=O)[nH]c4=O)cc3Cl)n[nH]c(=O)c21 [Form R, (R)-2-(3,5-dichloro-4-((7-(methyl-d3)-1-oxo-2,5,6,7-tetrahydro-1H-cyclopenta [d]pyridazin-4-yl)oxy)phenyl)-3,5-dioxo-2,3,4,5-tetrahydro-1,2,4-triazine-6-carbonitrile]
